Experimental data published in PubChem BioAssay (NCI).
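How tested: cells in 96-well plates exposed to compound for 48 hours at five concentrations. TGI: total growth inhibition.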

Legend:
Experiment in all cases: DTP human tumour cell line panel, 48 h
786-0 renal = tested on: 786-0 renal
A498 renal = tested on: A498 renal
A549 NSCLC = tested on: A549 NSCLC
ACHN renal = tested on: ACHN renal
BT-549 breast = tested on: BT-549 breast
CAKI-1 renal = tested on: CAKI-1 renal
CCRF-CEM leukemia = tested on: CCRF-CEM leukemia
COLO 205 colon = tested on: COLO 205 colon
DU-145 prostate = tested on: DU-145 prostate
EKVX NSCLC = tested on: EKVX NSCLC
HCC-2998 colon = tested on: HCC-2998 colon
HCT-116 colon = tested on: HCT-116 colon
HCT-15 colon = tested on: HCT-15 colon
HOP-62 NSCLC = tested on: HOP-62 NSCLC
HOP-92 NSCLC = tested on: HOP-92 NSCLC
HS 578T breast = tested on: HS 578T breast
HT29 colon = tested on: HT29 colon
IGROV1 ovarian = tested on: IGROV1 ovarian
K-562 leukemia = tested on: K-562 leukemia
KM12 colon = tested on: KM12 colon
LOX IMVI melanoma = tested on: LOX IMVI melanoma
M14 melanoma = tested on: M14 melanoma
MALME-3M melanoma = tested on: MALME-3M melanoma
MCF7 breast = tested on: MCF7 breast
MDA-MB-231 breast = tested on: MDA-MB-231 breast
MDA-MB-435 = tested on: MDA-MB-435
MDA-N = tested on: MDA-N
MOLT-4 leukemia = tested on: MOLT-4 leukemia
NCI-H226 lung = tested on: NCI-H226 lung
NCI-H23 lung = tested on: NCI-H23 lung
NCI-H460 lung = tested on: NCI-H460 lung
NCI-H522 lung = tested on: NCI-H522 lung
NCI/ADR-RES ovarian = tested on: NCI/ADR-RES ovarian
OVCAR-3 ovarian = tested on: OVCAR-3 ovarian
OVCAR-4 ovarian = tested on: OVCAR-4 ovarian
OVCAR-5 ovarian = tested on: OVCAR-5 ovarian
OVCAR-8 ovarian = tested on: OVCAR-8 ovarian
PC-3 prostate = tested on: PC-3 prostate
RPMI-8226 leukemia = tested on: RPMI-8226 leukemia
RXF 393 renal = tested on: RXF 393 renal
SF-268 CNS = tested on: SF-268 CNS
SF-295 CNS = tested on: SF-295 CNS
SF-539 CNS = tested on: SF-539 CNS
SK-MEL-2 melanoma = tested on: SK-MEL-2 melanoma
SK-MEL-28 melanoma = tested on: SK-MEL-28 melanoma
SK-MEL-5 melanoma = tested on: SK-MEL-5 melanoma
SK-OV-3 ovarian = tested on: SK-OV-3 ovarian
SN12C renal = tested on: SN12C renal
SNB-19 CNS = tested on: SNB-19 CNS
SNB-75 CNS = tested on: SNB-75 CNS
SR leukemia = tested on: SR leukemia
SW-620 colon = tested on: SW-620 colon
T-47D breast = tested on: T-47D breast
TK-10 renal = tested on: TK-10 renal
U251 CNS = tested on: U251 CNS
UACC-257 melanoma = tested on: UACC-257 melanoma
UACC-62 melanoma = tested on: UACC-62 melanoma
UO-31 renal = tested on: UO-31 renal
HL-60(TB) leukemia = tested on: HL-60(TB) leukemia

With `OC1[C@@H]2[C@@H](O)[C@H](O)[C@@H](O)N2C[C@@H]1O` (stereo partly drawn) the TGI (786-0 renal) was > 100 µM, the TGI (A498 renal) was > 100 µM and the TGI (A549 NSCLC) was > 100 µM. The TGI (ACHN renal) was > 100 µM, the TGI (BT-549 breast) was > 100 µM and the TGI (CAKI-1 renal) was > 100 µM. The TGI (CCRF-CEM leukemia) was > 100 µM, the TGI (COLO 205 colon) was > 100 µM and the TGI (DU-145 prostate) was > 100 µM. The TGI (EKVX NSCLC) was > 100 µM, the TGI (HCC-2998 colon) was > 100 µM and the TGI (HCT-116 colon) was > 100 µM. For the same compound, the TGI (HCT-15 colon) was > 100 µM, the TGI (HOP-62 NSCLC) was > 100 µM and the TGI (HOP-92 NSCLC) was > 100 µM. For the same compound, the TGI (HS 578T breast) was > 100 µM, the TGI (HT29 colon) was > 100 µM and the TGI (IGROV1 ovarian) was > 100 µM. For the same compound, the TGI (K-562 leukemia) was > 100 µM, the TGI (KM12 colon) was > 100 µM and the TGI (LOX IMVI melanoma) was > 100 µM. The TGI (M14 melanoma) was > 100 µM, the TGI (MALME-3M melanoma) was > 100 µM and the TGI (MCF7 breast) was > 100 µM. The TGI (MDA-MB-231 breast) was > 100 µM, the TGI (MDA-MB-435) was > 100 µM and the TGI (MDA-N) was > 100 µM. For the same compound, the TGI (MOLT-4 leukemia) was > 100 µM, the TGI (NCI-H226 lung) was > 100 µM and the TGI (NCI-H23 lung) was > 100 µM. For the same compound, the TGI (NCI-H460 lung) was > 100 µM, the TGI (NCI-H522 lung) was > 100 µM and the TGI (NCI/ADR-RES ovarian) was > 100 µM. The TGI (OVCAR-3 ovarian) was > 100 µM, the TGI (OVCAR-4 ovarian) was > 100 µM and the TGI (OVCAR-5 ovarian) was > 100 µM. For the same compound, the TGI (OVCAR-8 ovarian) was > 100 µM, the TGI (PC-3 prostate) was > 100 µM and the TGI (RPMI-8226 leukemia) was > 23.5 µM. For the same compound, the TGI (RXF 393 renal) was > 100 µM, the TGI (SF-268 CNS) was > 100 µM and the TGI (SF-295 CNS) was > 100 µM. For the same compound, the TGI (SF-539 CNS) was > 100 µM, the TGI (SK-MEL-2 melanoma) was > 100 µM and the TGI (SK-MEL-28 melanoma) was > 100 µM. For the same compound, the TGI (SK-MEL-5 melanoma) was > 100 µM, the TGI (SK-OV-3 ovarian) was > 100 µM and the TGI (SN12C renal) was > 100 µM. For the same compound, the TGI (SNB-19 CNS) was > 100 µM, the TGI (SNB-75 CNS) was > 100 µM and the TGI (SR leukemia) was > 43.6 µM. The TGI (SW-620 colon) was > 100 µM, the TGI (T-47D breast) was > 100 µM and the TGI (TK-10 renal) was > 100 µM. For the same compound, the TGI (U251 CNS) was > 100 µM, the TGI (UACC-257 melanoma) was > 100 µM and the TGI (UACC-62 melanoma) was > 100 µM. The TGI (UO-31 renal) was > 100 µM.

In the case of `O=C(O)c1ccc(N=C(C(=Nc2ccc(C(=O)O)cc2)c2ccccc2)c2ccccc2)cc1`, the TGI (786-0 renal) is reported as > 100 µM, the TGI (A498 renal) is reported as > 100 µM and the TGI (A549 NSCLC) is reported as > 100 µM. For the same compound, the TGI (ACHN renal) was > 100 µM, the TGI (BT-549 breast) was > 100 µM and the TGI (COLO 205 colon) was > 100 µM. The TGI (DU-145 prostate) was > 100 µM, the TGI (EKVX NSCLC) was > 100 µM and the TGI (HCC-2998 colon) was > 100 µM. The TGI (HCT-116 colon) was > 100 µM, the TGI (HCT-15 colon) was > 100 µM and the TGI (HOP-62 NSCLC) was > 100 µM. For the same compound, the TGI (HS 578T breast) was > 100 µM, the TGI (IGROV1 ovarian) was > 100 µM and the TGI (K-562 leukemia) was > 100 µM. The TGI (KM12 colon) was > 100 µM, the TGI (LOX IMVI melanoma) was > 100 µM and the TGI (M14 melanoma) was > 100 µM. For the same compound, the TGI (MCF7 breast) was > 100 µM, the TGI (MDA-MB-231 breast) was > 100 µM and the TGI (MDA-MB-435) was > 100 µM. For the same compound, the TGI (MDA-N) was > 100 µM, the TGI (MOLT-4 leukemia) was > 100 µM and the TGI (NCI-H226 lung) was > 100 µM. The TGI (NCI-H23 lung) was > 100 µM, the TGI (NCI-H460 lung) was > 100 µM and the TGI (NCI/ADR-RES ovarian) was > 100 µM. For the same compound, the TGI (OVCAR-3 ovarian) was > 100 µM, the TGI (OVCAR-4 ovarian) was > 100 µM and the TGI (OVCAR-5 ovarian) was > 100 µM. For the same compound, the TGI (OVCAR-8 ovarian) was > 100 µM, the TGI (PC-3 prostate) was > 100 µM and the TGI (RPMI-8226 leukemia) was > 100 µM. For the same compound, the TGI (RXF 393 renal) was > 100 µM, the TGI (SF-268 CNS) was > 100 µM and the TGI (SF-295 CNS) was > 100 µM. For the same compound, the TGI (SK-MEL-2 melanoma) was > 100 µM, the TGI (SK-MEL-28 melanoma) was > 100 µM and the TGI (SK-OV-3 ovarian) was > 100 µM. For the same compound, the TGI (SN12C renal) was > 100 µM, the TGI (SNB-19 CNS) was > 100 µM and the TGI (SNB-75 CNS) was > 100 µM. For the same compound, the TGI (SR leukemia) was > 100 µM, the TGI (SW-620 colon) was > 100 µM and the TGI (T-47D breast) was > 100 µM. For the same compound, the TGI (TK-10 renal) was > 100 µM, the TGI (U251 CNS) was > 100 µM and the TGI (UACC-257 melanoma) was > 100 µM. The TGI (UACC-62 melanoma) was > 100 µM and the TGI (UO-31 renal) was > 100 µM.

With `COc1cc(C#CC(=O)OC/C=C/c2ccc3c(c2)OCO3)cc(OC)c1OC` the TGI (786-0 renal) was > 100 µM, the TGI (A498 renal) was 21.5 µM and the TGI (A549 NSCLC) was > 100 µM. For the same compound, the TGI (ACHN renal) was > 100 µM, the TGI (BT-549 breast) was 52.3 µM and the TGI (CAKI-1 renal) was 57 µM. For the same compound, the TGI (CCRF-CEM leukemia) was 49.3 µM, the TGI (COLO 205 colon) was 35.7 µM and the TGI (DU-145 prostate) was > 100 µM. For the same compound, the TGI (EKVX NSCLC) was 76.9 µM, the TGI (HCC-2998 colon) was 49.2 µM and the TGI (HCT-116 colon) was > 100 µM. The TGI (HCT-15 colon) was 78.8 µM, the TGI (HL-60(TB) leukemia) was 62.9 µM and the TGI (HOP-62 NSCLC) was 86 µM. For the same compound, the TGI (HOP-92 NSCLC) was 54.5 µM, the TGI (HS 578T breast) was 51 µM and the TGI (HT29 colon) was > 100 µM. The TGI (K-562 leukemia) was 58.1 µM, the TGI (KM12 colon) was > 100 µM and the TGI (LOX IMVI melanoma) was 47.3 µM. For the same compound, the TGI (M14 melanoma) was 79.8 µM, the TGI (MALME-3M melanoma) was 47.7 µM and the TGI (MCF7 breast) was 64.8 µM. The TGI (MDA-MB-231 breast) was 79.4 µM, the TGI (MDA-MB-435) was 38.1 µM and the TGI (MDA-N) was 45 µM. It also gave a TGI (NCI-H226 lung) of 48.5 µM, a TGI (NCI-H23 lung) of 58.5 µM and a TGI (NCI-H460 lung) of 77.1 µM. For the same compound, the TGI (NCI/ADR-RES ovarian) was 47.8 µM, the TGI (OVCAR-3 ovarian) was 63.3 µM and the TGI (OVCAR-4 ovarian) was > 100 µM. The TGI (OVCAR-5 ovarian) was > 100 µM, the TGI (OVCAR-8 ovarian) was > 100 µM and the TGI (PC-3 prostate) was 72.3 µM. For the same compound, the TGI (RPMI-8226 leukemia) was 51.8 µM, the TGI (RXF 393 renal) was 30.2 µM and the TGI (SF-268 CNS) was 59.5 µM. For the same compound, the TGI (SF-295 CNS) was > 100 µM, the TGI (SF-539 CNS) was 44.5 µM and the TGI (SK-MEL-2 melanoma) was 25.4 µM. For the same compound, the TGI (SK-MEL-28 melanoma) was > 100 µM, the TGI (SK-MEL-5 melanoma) was 32.8 µM and the TGI (SK-OV-3 ovarian) was 68.6 µM. For the same compound, the TGI (SN12C renal) was > 100 µM, the TGI (SNB-19 CNS) was > 100 µM and the TGI (SR leukemia) was 40.5 µM. For the same compound, the TGI (SW-620 colon) was 80.6 µM, the TGI (T-47D breast) was > 100 µM and the TGI (TK-10 renal) was 60.8 µM. The TGI (U251 CNS) was > 100 µM, the TGI (UACC-257 melanoma) was 70.9 µM and the TGI (UACC-62 melanoma) was 37.2 µM. It also gave a TGI (UO-31 renal) of 37 µM.
